# Data as given in US20230339871A1, “COMPOUNDS AND METHODS OF MODULATING 17B-HYDROXYSTEROID DEHYDROGENASE TYPE 13” (METREA BIOSCIENCES, INC., priority 2020, published 2023).
# pIC50: −log10 of the molar value.
# Target: T1, recombinant human full-length HSD17B13 protein (Homo sapiens, UniProt Q7Z5P4)
# T1 construct: recombinant human full-length HSD17B13 protein; 6xHis (C); made in house; host or cells: HEK293E-253/FH
# T1 sequence (Q7Z5P4 20-300): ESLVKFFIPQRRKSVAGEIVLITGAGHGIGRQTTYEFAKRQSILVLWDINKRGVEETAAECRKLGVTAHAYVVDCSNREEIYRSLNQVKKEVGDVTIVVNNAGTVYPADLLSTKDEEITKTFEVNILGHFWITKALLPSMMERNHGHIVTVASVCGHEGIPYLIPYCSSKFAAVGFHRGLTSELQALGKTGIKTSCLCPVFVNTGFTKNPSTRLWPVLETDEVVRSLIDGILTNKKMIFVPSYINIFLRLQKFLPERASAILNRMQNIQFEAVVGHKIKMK
# Assay: HSD17B13 96 luminescence inhibition assay (NAD(P)H-Glo)
# Assay type: biochemical
# Protocol: Compounds of the present disclosure were tested for inhibition of HSD17B13 using the following protocol. Briefly, recombinant human full-length HSD17B13 protein with a 6X-C-terminal His tag was expressed in cell line HEK293E-253/FH and purified using Ni^2+-affinity purification. Enzymatic activity was determined through the production of NADH using the NAD(P)H-Glo Detection System (Promega). The inhibitory activity of test compounds was determined in reactions performed at 30° C. in assay buffer consisting of 25 mM EPPS (8.0), 125 mM NaCl, 0.03% Triton X-100, 0.03% BSA, with […] steroid substrate (1,3,5(10), 7-estratetraen-3, 17b-diol (Steraloids E0580)) added from a 2.5 mM DMSO stock and 500 mM NAD. The final percentage of DMSO was 4.5%. After a one-hour incubation, a 20% volume of luciferase Glo-reagent was added and light units captured on a Victor V Plate Reader (Perkin Elmer).
# Concentration-response curves for inhibitors were normalized to control samples containing enzyme only (negative control) and sample without enzyme (positive control). 50% inhibition (IC50) values were determined using a nonlinear least squares fit of the data to a four-parameter equation using Prism 6.0 (GraphPad Software, San Diego).
row,SMILES,pIC50
1,"CS(=O)(=O)N1CCC(CN2C(=O)S/C(=C\c3c(F)cc(F)c(O)c3F)C2=O)C1 (centres unmarked) [Compound 1, (Z)-3-((1-(methylsulfonyl)pyrrolidin-3-yl)methyl)-5-(2,4,6-trifluoro-3-hydroxybenzylidene)thiazolidine-2,4-dione]",< 5.30
2,"O=C1S/C(=C\c2ccc(F)c(O)c2)C(=O)N1Cc1ccc(F)c(F)c1 [Compound 2, (Z)-3-(3,4-difluorobenzyl)-5-(4-fluoro-3-hydroxybenzylidene)thiazolidine-2,4-dione]",5.30 to 6.00
3,"O=C1S/C(=C\c2cc(F)c(F)c(O)c2F)C(=O)N1Cc1cccc(O)c1 [Compound 3, (Z)-3(3-hydroxybenzyl)-5-(2,4,5-trifluoro-3-hydroxybenzylidene)thiazolidine-2,4-dione]",5.30 to 6.00
4,"O=C1S/C(=C\c2c(F)cc(F)c(O)c2F)C(=O)N1Cc1cccc(O)c1 [Compound 4, (Z)-3-(3-hydroxybenzyl)-5-(2,4,6-trifluoro-3-hydroxybenzylidene)thiazolidine-2,4-dione]",5.30 to 6.00
5,"O=C1S/C(=C\c2ccc(F)c(O)c2F)C(=O)N1Cc1cccc(O)c1 [Compound 6, (Z)-5(2,4-difluoro-3-hydroxybenzylidene)-3-(3-hydroxybenzyl)thiazolidine-2,4-dione]",5.30 to 6.00
6,"O=C1S/C(=C\c2cc(O)c(F)c(F)c2)C(=O)N1Cc1cccc(O)c1 [Compound 7, (5Z)-5-[(3,4-difluoro-5-hydroxyphenyl)methylidene]-3-[(3-hydroxyphenyl)methyl]-1,3-thiazolidine-2,4-dione]",5.30 to 6.00
7,"O=C1S/C(=C\c2ccc(F)c(O)c2)C(=O)N1Cc1cccc(O)c1 [Compound 11, (Z)-5-(4-fluoro-3-hydroxybenzylidene)-3-(3-hydroxybenzyl)thiazolidine-2,4-dione]",5.30 to 6.00
8,"O=C1O/C(=C\c2ccc(F)c(O)c2)C(=O)N1CC1CCOCC1 [Compound 13, (Z)-5-(4-fluoro-3-hydroxybenzylidene)-3-((tetrahydro-2H-pyran-4-yl)methyl) oxazolidine-2,4-dione]",5.30 to 6.00
9,"O=C1S/C(=C\c2ccc(F)c(O)c2)C(=O)N1CC1CCOCC1 [Compound 14, (Z)-5-(4-fluoro-3-hydroxybenzylidene)-3-((tetrahydro-2H-pyran-4-yl)methyl)thiazolidine-2,4-dione]",< 5.30
10,"O=C1S/C(=C\c2ccc(F)c(O)c2)C(=O)N1Cc1cccc(C(F)(F)F)c1 [Compound 17, (Z)-5-(4-fluoro-3-hydroxybenzylidene)-3-(3-(trifluoromethyl)benzyl)thiazolidine-2,4-dione]",5.30 to 6.00
11,"NC(=O)c1cccc(CN2C(=O)S/C(=C\c3ccc(F)c(O)c3)C2=O)c1 [Compound 18, (Z)-3-((5-(4-fluoro-3-hydroxybenzylidene)-2,4-dioxothiazolidin-3-yl)methyl) benzamide]",5.30 to 6.00
12,"COc1ccc(CN2C(=O)S/C(=C\c3c(F)cc(F)c(O)c3F)C2=O)cn1 [Compound 23, (Z)-3-((6-methoxypyridin-3-yl)methyl)-5-(2,4,6-trifluoro-3-hydroxybenzylidene)thiazolidine-2,4-dione]",5.30 to 6.00
13,"O=C(NCc1cccc(O)c1)c1ccc2cc(F)c(O)cc2n1 [Compound 24, 6-fluoro-7-hydroxy-N-(3-hydroxybenzyl)quinoline-2-carboxamide]",5.30 to 6.00
14,"O=C(NCc1cccc(O)c1)c1cc2cc(O)c(F)cc2cn1 [Compound 26, 7-fluoro-6-hydroxy-N-(3-hydroxybenzyl)isoquinoline-3-carboxamide]",< 5.30
15,"N#Cc1cccc(CNC(=O)c2ccc3cc(F)c(O)cc3n2)c1 [Compound 27, N-(3-cyanobenzyl)-6-fluoro-7-hydroxyquinoline-2-carboxamide]",< 5.30
16,"O=C(c1ccc(-c2ccc(F)c(O)c2F)s1)c1c(F)cc(F)c(O)c1F [Compound 29, (5-(2,4-difluoro-3-hydroxyphenyl)thiophen-2-yl)(2,4,6-trifluoro-3-hydroxyphenyl)methanone]",5.30 to 6.00
17,"O=C(c1cc(O)c(F)c(F)c1)c1ccc(-c2ccc(F)c(O)c2F)s1 [Compound 30, (5-(2,4-difluoro-3-hydroxyphenyl)thiophen-2-yl)(3,4-difluoro-5-hydroxyphenyl) methanone]",5.30 to 6.00
18,"O=C(c1ccc(-c2ccc(F)c(O)c2F)s1)c1cc(F)c(F)c(O)c1F [Compound 31, (5-(2,4-difluoro-3-hydroxyphenyl)thiophen-2-yl)(2,4,5-trifluoro-3-hydroxyphenyl) methanone]",5.30 to 6.00
19,"NS(=O)(=O)c1cccc(CN2C(=O)S/C(=C\c3ccc(F)c(O)c3)C2=O)c1 [Compound 33, (Z)-3-((5-(4-fluoro-3-hydroxybenzylidene)-2,4-dioxothiazolidin-3-yl)methyl) benzenesulfonamide]",≥ 6.00
20,"O=C1S/C(=C\c2c(F)cc(F)c(O)c2F)C(=O)N1Cc1ccc(=O)[nH]c1 [Compound 35, (5Z)-3-[(6-oxo-1,6-dihydropyridin-3-yl)methyl]-5-[(2,4,6-trifluoro-3-hydroxyphenyl)methylidene]-1,3-thiazolidine-2,4-dione]",≥ 6.00
21,"O=C1S/C(=C\c2c(F)cc(F)c(O)c2F)C(=O)N1Cc1cc[nH]c(=O)c1 [Compound 36, (Z)-3-((2-oxo-1,2-dihydropyridin-4-yl)methyl)-5-(2,4,6-trifluoro-3-hydroxybenzylidene)thiazolidine-2,4-dione]",5.30 to 6.00
22,"O=C1S/C(=C\c2c(F)ccc(O)c2F)C(=O)N1Cc1cccc(O)c1 [Compound 37, (Z)-5-(2,6-difluoro-3-hydroxybenzylidene)-3-(3-hydroxybenzyl)thiazolidine-2,4-dione]",< 5.30

# Next, values leading:
row,pIC50,SMILES
1,5.30 to 6.00,"O=C1S/C(=C\c2ccc(F)c(O)c2)C(=O)N1Cc1cc(O)ccc1F [Compound 8, (Z)-5-(4-fluoro-3-hydroxybenzylidene)-3-(2-fluoro-5-hydroxybenzyl)thiazolidine-2,4-dione]"
2,5.30 to 6.00,"O=C1S/C(=C\c2ccc(F)c(O)c2)C(=O)N1Cc1cc(O)cc(F)c1 [Compound 9, (Z)-5-(4-fluoro-3-hydroxybenzylidene)-3-(3-fluoro-5-hydroxybenzyl)thiazolidine-2,4-dione]"
3,< 5.30,"O=C1O/C(=C\c2ccc(F)c(O)c2)C(=O)N1Cc1cccc(O)c1 [Compound 10, (Z)-5-(4-fluoro-3-hydroxybenzylidene)-3-(3-hydroxybenzyl)oxazolidine-2,4-dione]"
4,5.30 to 6.00,"CS(=O)(=O)c1cccc(CN2C(=O)S/C(=C\c3ccc(F)c(O)c3)C2=O)c1 [Compound 12, (Z)-5-(4-fluoro-3-hydroxybenzylidene)-3-(3-(methylsulfonyl)benzyl)thiazolidine-2,4-dione]"
5,5.30 to 6.00,"O=C1S/C(=C\c2ccc(F)c(O)c2)C(=O)N1Cc1cccc(-c2c[nH]nn2)c1 [Compound 15, (Z)-3-(3-(1H-1,2,3-triazol-4-yl)benzyl)-5-(4-fluoro-3-hydroxybenzylidene) thiazolidine-2,4-dione]"
6,< 5.30,"O=C1S/C(=C\c2ccc(F)c(O)c2)C(=O)N1Cc1cccc(OC(F)(F)F)c1 [Compound 16, (Z)-5-(4-fluoro-3-hydroxybenzylidene)-3-(3-(trifluoromethoxy)benzyl) thiazolidine-2,4-dione]"
7,5.30 to 6.00,"N#Cc1cccc(CN2C(=O)S/C(=C\c3ccc(F)c(O)c3)C2=O)c1 [Compound 19, (Z)-3-((5-(4-fluoro-3-hydroxybenzylidene)-2,4-dioxothiazolidin-3-yl)methyl) benzonitrile]"
8,< 5.30,"CS(=O)(=O)Nc1cccc(CN2C(=O)S/C(=C\c3ccc(F)c(O)c3)C2=O)c1 [Compound 20, N-(3-{[(5Z)-5-[(4-fluoro-3-hydroxyphenyl)methylidene]-2,4-dioxo-1,3-thiazolidin-3-yl]methyl}phenyl)methanesulfonamide]"
9,≥ 6.00,"COc1cc(CN2C(=O)S/C(=C\c3c(F)cc(F)c(O)c3F)C2=O)ccn1 [Compound 22, (Z)-3-((2-methoxypyridin-4-yl)methyl)-5-(2,4,6-trifluoro-3-hydroxybenzylidene) thiazolidine-2,4-dione]"
10,< 5.30,"O=C(NCc1cccc(-c2nnn[nH]2)c1)c1ccc2cc(F)c(O)cc2n1 [Compound 25, N-(3-(1H-tetrazol-5-yl)benzyl)-6-fluoro-7-hydroxyquinoline-2-carboxamide]"
11,5.30 to 6.00,"O=C(c1ccc(F)c(O)c1)c1ccc(-c2ccc(F)c(O)c2F)s1 [Compound 28, (5-(2,4-difluoro-3-hydroxyphenyl)thiophen-2-yl)(4-fluoro-3-hydroxyphenyl) methanone]"
12,5.30 to 6.00,"O=C(c1ccc(-c2ccc(F)c(O)c2F)s1)c1ccc(F)c(O)c1F [Compound 32, (2,4-difluoro-3-hydroxyphenyl)(5-(2,4-difluoro-3-hydroxyphenyl)thiophen-2-yl)methanone]"
13,≥ 6.00,"NS(=O)(=O)c1cccc(CN2C(=O)S/C(=C\c3c(F)cc(F)c(O)c3F)C2=O)c1 [Compound 34, (Z)-3-((2,4-dioxo-5-(2,4,6-trifluoro-3-hydroxybenzylidene)thiazolidin-3-yl)methyl)benzenesulfonamide]"
